Numbers after ± are expanded uncertainties.
Assay: mn = molality of the nth substance listed, in mol/kg
Settings: 100 kPa, Liquid, Capillary tube (Ostwald / Ubbelohde) method

Compound	viscosity (288.15 K, m1 = 0.05) [mPa·s]	viscosity (288.15 K, m1 = 0.15) [mPa·s]	viscosity (288.15 K, m1 = 0.25) [mPa·s]	viscosity (288.15 K, m1 = 0.35) [mPa·s]	viscosity (298.15 K, m1 = 0.05) [mPa·s]	viscosity (298.15 K, m1 = 0.15) [mPa·s]	viscosity (298.15 K, m1 = 0.25) [mPa·s]	viscosity (298.15 K, m1 = 0.35) [mPa·s]	viscosity (308.15 K, m1 = 0.05) [mPa·s]	viscosity (308.15 K, m1 = 0.15) [mPa·s]	viscosity (308.15 K, m1 = 0.25) [mPa·s]	viscosity (308.15 K, m1 = 0.35) [mPa·s]	viscosity (318.15 K, m1 = 0.05) [mPa·s]	viscosity (318.15 K, m1 = 0.15) [mPa·s]	viscosity (318.15 K, m1 = 0.25) [mPa·s]	viscosity (318.15 K, m1 = 0.35) [mPa·s]
Cc1ncc(C[n+]2csc(CCO)c2C)c(N)n1.Cl.[Cl-] [thiamine hydrochloride] + O	1.179 ± 0.021	1.27 ± 0.021	1.368 ± 0.021	1.473 ± 0.022	0.917 ± 0.021	0.986 ± 0.021	1.059 ± 0.021	1.146 ± 0.021	0.748 ± 0.021	0.803 ± 0.021	0.851 ± 0.021	0.91 ± 0.021	0.615 ± 0.02	0.658 ± 0.02	0.703 ± 0.02	0.749 ± 0.021
Cc1ncc(CO)c(CO)c1O.Cl [5-hydroxy-6-methyl-3,4-pyridinedimethanol hydrochloride] + O	1.16 ± 0.021	1.209 ± 0.021	1.256 ± 0.021	1.304 ± 0.021	0.912 ± 0.021	0.944 ± 0.021	0.982 ± 0.021	1.019 ± 0.021	0.736 ± 0.02	0.761 ± 0.021	0.791 ± 0.021	0.82 ± 0.021	0.607 ± 0.02	0.634 ± 0.02	0.656 ± 0.02	0.68 ± 0.02

From the NIST ThermoML archive (doi:10.1021/acs.jced.7b00937)
